Results: patent US20260297085A1, “1 H-PYRROLO[2,3-B]PYRIDIN-4-YL]-2-OXOPYRROLIDINE-3-CARBONITRILE DERIVATIVES AS TYROSINE KINASE 2 (TYK2) INHIBITORS FOR THE TREATMENT OF INFLAMMATORY DISEASES” (BIOGEN MA INC., priority 2023, published 2026)
Structures can show the parent of a compound that is named as a salt.

Experiments:
[1] = target: T1, human TYK2 kinase domain (JH1) (Homo sapiens, UniProt P29597); assay: JH1 biochemical assay for TYK2 (ADP-Glo kinase assay, recombinant JH1 catalytic domain, JAK3-974 peptide, 10 μM ATP)
T1 construct: recombinantly generated catalytic kinase (also known as JH1) domain of human JAK1, JAK2, JAK3 and TYK2
T1 sequence (P29597 897-1176 limits assumed): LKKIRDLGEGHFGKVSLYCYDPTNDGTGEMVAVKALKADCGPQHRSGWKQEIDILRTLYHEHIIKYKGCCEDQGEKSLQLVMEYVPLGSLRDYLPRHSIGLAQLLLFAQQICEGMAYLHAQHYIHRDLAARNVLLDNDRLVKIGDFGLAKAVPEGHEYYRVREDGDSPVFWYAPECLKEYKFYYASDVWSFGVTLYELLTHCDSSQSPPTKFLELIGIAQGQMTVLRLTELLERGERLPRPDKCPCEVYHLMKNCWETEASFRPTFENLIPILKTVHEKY
How it was run: (§1)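 Compounds were titrated in 11 points of 3-fold dilution starting at 10 μM or 1 μM. Enzyme (JAK1 4 nM, JAK2 0.2 nM, JAK3 0.3 nM, TYK2 2 nM) and 50 μM peptide reacted for 100 minutes, followed by ADP-to-luminescence detection; IC50 by 4-parameter fit.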

[2] = target: T2, human JAK1 kinase domain (JH1) (Homo sapiens, UniProt P23458); assay: JH1 biochemical assay for JAK1 (ADP-Glo kinase assay, recombinant JH1 catalytic domain, JAK3-342 peptide, 35 μM ATP)
T2 construct: recombinantly generated catalytic kinase (also known as JH1) domain of human JAK1, JAK2, JAK3 and TYK2
How it was run: as §1

[3] = target: T3, human JAK2 kinase domain (JH1) (Homo sapiens, UniProt O60674); assay: JH1 biochemical assay for JAK2 (ADP-Glo kinase assay, recombinant JH1 catalytic domain, JAK3-974 peptide, 15 μM ATP)
T3 construct: recombinantly generated catalytic kinase (also known as JH1) domain of human JAK1, JAK2, JAK3 and TYK2
How it was run: as §1

[4] = target: T4, human JAK3 kinase domain (JH1) (Homo sapiens, UniProt P52333); assay: JH1 biochemical assay for JAK3 (ADP-Glo kinase assay, recombinant JH1 catalytic domain, JAK3-974 peptide, 4 μM ATP)
T4 construct: recombinantly generated catalytic kinase (also known as JH1) domain of human JAK1, JAK2, JAK3 and TYK2
How it was run: as §1

[5] = target: Tyk2 kinase activity on STAT4 in NK92 cells (Homo sapiens, UniProt P29597); assay: pSTAT4 cell assay (MSD; NK92 cells, 30 ng/mL IL2 stimulation); assay type: cell-based; conditions: 30 ng/mL IL2, 15 minutes
How it was run: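 Compound treatment of starved NK92 cells ran 1 hr before a 15-minute, 30 ng/mL IL2 pulse; lysates went to an MSD anti-STAT4 antibody assay, with curves fitted by 4-parameter logistic model.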

[6] = target: JAK2 kinase activity on STAT5 in TF1 cells (Homo sapiens, UniProt O60674); assay: pSTAT5 cell assay (MSD; TF1 cells, 30 ng/mL IL-3 stimulation); assay type: cell-based; conditions: 30 ng/mL IL-3, 15 minutes
How it was run: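 IC50 from a 4-parameter logistic fit of normalized pSTAT5 signal, measured by MSD in lysates of TF1 cells. Cells were serum-starved, exposed to compound for 1 h (top concentration 10 μM, four-fold, 10 points), then given IL-3 at 30 ng/mL for 15 min.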

[7] = target: JAK1 kinase activity on STAT3 in TF1 cells (Homo sapiens, UniProt P23458); assay: pSTAT3 cell assay (MSD; TF1 cells, 30 ng/mL IL-6 stimulation); assay type: cell-based; conditions: 30 ng/mL IL-6, 15 minutes
How it was run: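 Serum starvation, 1 h compound (10 pt, 4-fold from 10 μM), IL-6 15 min, lysis. pSTAT3 read by MSD immunoassay, anti-STAT3 Abs. Normalized % activity vs log[cpd], 4-PL fit → IC50.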

T2 sequence (P23458 875-1153 limits assumed): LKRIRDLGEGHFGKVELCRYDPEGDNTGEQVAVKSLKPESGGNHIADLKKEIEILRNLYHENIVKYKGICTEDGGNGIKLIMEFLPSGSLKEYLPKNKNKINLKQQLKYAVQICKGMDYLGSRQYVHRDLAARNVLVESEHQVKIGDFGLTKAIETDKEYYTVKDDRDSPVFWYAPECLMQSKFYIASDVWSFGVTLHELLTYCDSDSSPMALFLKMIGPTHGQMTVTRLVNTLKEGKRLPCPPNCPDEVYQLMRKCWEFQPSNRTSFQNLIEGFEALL
JAK1 kinase activity on STAT3 in TF1 cells, sequence (P23458 whole entry): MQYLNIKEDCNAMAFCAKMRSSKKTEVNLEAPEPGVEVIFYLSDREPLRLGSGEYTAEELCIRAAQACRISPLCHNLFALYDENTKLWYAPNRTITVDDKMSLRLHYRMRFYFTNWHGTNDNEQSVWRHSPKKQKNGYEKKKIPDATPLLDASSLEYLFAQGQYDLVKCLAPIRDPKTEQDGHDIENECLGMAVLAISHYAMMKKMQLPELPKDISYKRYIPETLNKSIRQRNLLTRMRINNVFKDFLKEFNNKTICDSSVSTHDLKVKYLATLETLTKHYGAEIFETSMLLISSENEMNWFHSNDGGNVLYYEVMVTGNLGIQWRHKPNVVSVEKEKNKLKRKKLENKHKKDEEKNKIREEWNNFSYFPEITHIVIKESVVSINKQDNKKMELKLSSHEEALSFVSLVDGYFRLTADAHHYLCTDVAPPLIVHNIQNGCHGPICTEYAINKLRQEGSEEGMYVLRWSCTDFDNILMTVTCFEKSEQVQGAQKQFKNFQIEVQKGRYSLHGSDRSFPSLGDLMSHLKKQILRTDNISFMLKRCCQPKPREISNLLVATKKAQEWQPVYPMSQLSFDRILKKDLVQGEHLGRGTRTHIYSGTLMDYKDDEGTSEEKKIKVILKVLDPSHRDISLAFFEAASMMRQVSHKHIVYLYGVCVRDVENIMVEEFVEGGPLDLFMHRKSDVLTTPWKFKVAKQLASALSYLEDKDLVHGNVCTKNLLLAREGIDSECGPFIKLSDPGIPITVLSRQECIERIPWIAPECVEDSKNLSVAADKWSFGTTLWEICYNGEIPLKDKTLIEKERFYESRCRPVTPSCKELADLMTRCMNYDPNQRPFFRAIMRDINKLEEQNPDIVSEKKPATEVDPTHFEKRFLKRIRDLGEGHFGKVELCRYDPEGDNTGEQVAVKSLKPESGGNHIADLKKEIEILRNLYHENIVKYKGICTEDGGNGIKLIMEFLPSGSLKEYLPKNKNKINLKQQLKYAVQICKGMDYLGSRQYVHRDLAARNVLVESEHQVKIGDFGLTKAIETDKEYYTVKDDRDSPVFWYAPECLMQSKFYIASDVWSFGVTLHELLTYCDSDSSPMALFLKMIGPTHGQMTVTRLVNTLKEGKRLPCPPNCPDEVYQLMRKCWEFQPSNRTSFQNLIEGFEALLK
JAK2 kinase activity on STAT5 in TF1 cells, sequence (O60674 whole entry): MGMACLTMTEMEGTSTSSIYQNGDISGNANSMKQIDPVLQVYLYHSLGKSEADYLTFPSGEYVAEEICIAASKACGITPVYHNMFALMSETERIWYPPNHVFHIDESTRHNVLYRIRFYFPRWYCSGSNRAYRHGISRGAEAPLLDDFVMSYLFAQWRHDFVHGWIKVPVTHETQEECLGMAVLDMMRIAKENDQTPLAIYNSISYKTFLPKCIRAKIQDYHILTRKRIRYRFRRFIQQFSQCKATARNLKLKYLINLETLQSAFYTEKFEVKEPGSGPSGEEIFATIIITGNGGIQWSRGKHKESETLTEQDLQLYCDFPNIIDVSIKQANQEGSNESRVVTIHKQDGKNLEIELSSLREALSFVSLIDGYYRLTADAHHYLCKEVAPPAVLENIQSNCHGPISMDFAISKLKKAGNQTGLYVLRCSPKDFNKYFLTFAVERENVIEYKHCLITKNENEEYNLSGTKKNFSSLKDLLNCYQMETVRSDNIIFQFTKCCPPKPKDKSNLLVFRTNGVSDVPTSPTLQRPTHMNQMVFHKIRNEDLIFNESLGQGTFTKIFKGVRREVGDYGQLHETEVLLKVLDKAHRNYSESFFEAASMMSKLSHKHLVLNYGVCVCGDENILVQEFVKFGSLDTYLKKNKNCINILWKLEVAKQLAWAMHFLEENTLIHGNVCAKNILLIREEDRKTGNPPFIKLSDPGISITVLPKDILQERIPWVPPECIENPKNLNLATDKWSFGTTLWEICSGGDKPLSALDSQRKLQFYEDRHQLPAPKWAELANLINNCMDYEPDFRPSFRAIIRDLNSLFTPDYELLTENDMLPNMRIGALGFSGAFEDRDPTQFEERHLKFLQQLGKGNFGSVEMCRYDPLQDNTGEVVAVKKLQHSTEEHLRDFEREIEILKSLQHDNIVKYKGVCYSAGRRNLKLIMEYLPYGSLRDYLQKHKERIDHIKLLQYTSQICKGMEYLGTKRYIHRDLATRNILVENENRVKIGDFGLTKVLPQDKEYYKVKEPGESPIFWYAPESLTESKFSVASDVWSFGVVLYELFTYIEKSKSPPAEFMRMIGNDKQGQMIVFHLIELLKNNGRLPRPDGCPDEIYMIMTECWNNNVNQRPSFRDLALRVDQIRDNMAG
T3 sequence (O60674 849-1124 limits assumed): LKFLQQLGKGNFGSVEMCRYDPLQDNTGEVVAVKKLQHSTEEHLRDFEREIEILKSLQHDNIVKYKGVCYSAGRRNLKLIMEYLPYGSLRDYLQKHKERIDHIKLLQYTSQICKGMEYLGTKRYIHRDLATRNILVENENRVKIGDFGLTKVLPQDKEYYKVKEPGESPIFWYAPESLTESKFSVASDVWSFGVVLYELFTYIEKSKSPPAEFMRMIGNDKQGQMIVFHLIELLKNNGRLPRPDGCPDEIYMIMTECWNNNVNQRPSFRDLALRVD
Tyk2 kinase activity on STAT4 in NK92 cells, sequence (P29597 whole entry): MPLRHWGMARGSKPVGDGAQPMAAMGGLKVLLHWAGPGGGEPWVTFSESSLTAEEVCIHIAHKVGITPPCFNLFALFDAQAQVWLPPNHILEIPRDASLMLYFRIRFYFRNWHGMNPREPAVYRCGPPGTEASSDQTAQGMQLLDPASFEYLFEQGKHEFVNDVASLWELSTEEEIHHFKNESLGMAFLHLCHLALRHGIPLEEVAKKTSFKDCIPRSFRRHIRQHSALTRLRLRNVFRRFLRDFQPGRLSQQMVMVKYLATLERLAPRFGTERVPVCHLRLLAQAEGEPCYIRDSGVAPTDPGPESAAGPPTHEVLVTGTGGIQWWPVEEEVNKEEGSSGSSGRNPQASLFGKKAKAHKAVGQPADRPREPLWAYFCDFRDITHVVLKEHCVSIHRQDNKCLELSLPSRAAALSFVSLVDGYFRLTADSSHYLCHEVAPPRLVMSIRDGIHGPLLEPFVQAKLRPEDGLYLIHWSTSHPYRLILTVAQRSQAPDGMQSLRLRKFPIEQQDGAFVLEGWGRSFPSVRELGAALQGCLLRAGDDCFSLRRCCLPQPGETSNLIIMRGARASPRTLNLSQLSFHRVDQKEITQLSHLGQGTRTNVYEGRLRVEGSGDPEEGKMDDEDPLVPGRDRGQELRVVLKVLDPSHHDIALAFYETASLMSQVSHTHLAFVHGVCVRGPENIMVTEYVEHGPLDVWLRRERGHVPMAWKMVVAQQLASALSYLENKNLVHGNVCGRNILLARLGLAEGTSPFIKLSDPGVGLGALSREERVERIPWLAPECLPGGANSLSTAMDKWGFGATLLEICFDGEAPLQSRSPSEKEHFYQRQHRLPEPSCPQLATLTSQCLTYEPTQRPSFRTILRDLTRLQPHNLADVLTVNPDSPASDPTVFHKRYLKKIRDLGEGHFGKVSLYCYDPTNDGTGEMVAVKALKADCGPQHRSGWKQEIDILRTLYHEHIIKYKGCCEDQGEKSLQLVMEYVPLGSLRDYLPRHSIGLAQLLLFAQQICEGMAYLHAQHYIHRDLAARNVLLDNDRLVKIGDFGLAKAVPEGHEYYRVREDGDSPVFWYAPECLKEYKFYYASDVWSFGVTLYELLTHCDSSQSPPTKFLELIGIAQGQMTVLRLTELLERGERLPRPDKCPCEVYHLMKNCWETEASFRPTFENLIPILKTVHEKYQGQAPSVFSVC
T4 sequence (P52333 822-1111 limits assumed): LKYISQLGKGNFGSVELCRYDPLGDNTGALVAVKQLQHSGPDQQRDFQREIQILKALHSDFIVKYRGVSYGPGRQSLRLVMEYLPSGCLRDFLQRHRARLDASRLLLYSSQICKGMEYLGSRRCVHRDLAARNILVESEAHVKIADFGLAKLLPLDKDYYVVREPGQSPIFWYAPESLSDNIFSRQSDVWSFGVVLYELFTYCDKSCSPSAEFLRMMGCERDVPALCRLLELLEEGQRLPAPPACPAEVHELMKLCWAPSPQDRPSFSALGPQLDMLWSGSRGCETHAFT

| Structure (SMILES) | IC50 ([1]; JH1 kinase domain, ADP-Glo) [nM] | IC50 ([2]; JH1 kinase domain, ADP-Glo) [nM] | IC50 ([3]; JH1 kinase domain, ADP-Glo) [nM] | IC50 ([4]; JH1 kinase domain, ADP-Glo) [nM] | IC50 [5] [nM] | IC50 [6] [nM] | IC50 [7] [nM] | IC50 ([1]; TYK2 JH1, ADP-Glo) [nM] | IC50 ([2]; JAK1 JH1, ADP-Glo) [nM] | IC50 ([3]; JAK2 JH1, ADP-Glo) [nM] | IC50 ([4]; JAK3 JH1, ADP-Glo) [nM] |
| --- | --- | --- | --- | --- | --- | --- | --- | --- | --- | --- | --- |
| N#C[C@@]1(C2CC2)CCN(c2ccnn3cc(-c4cnn(C(F)F)c4)cc23)C1=O [Example 10, (S)-3-cyclopropyl-1-(6-(1-(difluoromethyl)-1H-pyrazol-4-yl)pyrrolo[1,2-b]pyridazin-4-yl)-2-oxopyrrolidine-3-carbonitrile] | 5 to 20 | 100 to 1000 | 100 to 1000 | 100 to 1000 | > 100 | > 10000 | 1000 to 5000 |  |  |  |  |
| C[C@@H]1CN(c2nc(-c3ccc(=O)n(C)c3)cn3nccc23)C(=O)[C@]1(C#N)C1CC1 [Example 245, (3R,4S)-3-cyclopropyl-4-methyl-1-(6-(1-methyl-6-oxo-1,6-dihydropyridin-3-yl)pyrazolo[1,5-a]pyrazin-4-yl)-2-oxopyrrolidine-3-carbonitrile] |  |  |  |  | 50 to 100 | 1000 to 5000 | 100 to 1000 | < 5 | < 100 | 100 to 1000 | < 100 |
| C[C@@H]1CN(c2nc(-c3cnc4c(c3)CCN4)cn3nccc23)C(=O)[C@]1(C#N)C1CC1 [Example 215, (3R,4S)-3-cyclopropyl-1-(6-(2,3-dihydro-1H-pyrrolo[2,3-b]pyridin-5-yl)pyrazolo[1,5-a]pyrazin-4-yl)-4-methyl-2-oxopyrrolidine-3-carbonitrile] | < 5 | < 100 | < 100 | < 100 | 50 to 100 | 100 to 1000 | 100 to 1000 |  |  |  |  |
| CCn1cc(-n2nc(N3C[C@@H](C)[C@@](C#N)(C4CC4)C3=O)c3ccncc32)cn1 [Example 277, (3R,4S)-3-cyclopropyl-1-(1-(1-ethyl-1H-pyrazol-4-yl)-1H-pyrazolo[3,4-c]pyridin-3-yl)-4-methyl-2-oxopyrrolidine-3-carbonitrile] |  |  |  |  | > 100 | 5000 to 10000 | 1000 to 5000 | < 5 | 100 to 1000 | 100 to 1000 | 100 to 1000 |
| C[C@@H]1CN(c2ccnc3[nH]c(-c4cnn(C)c4)cc23)C(=O)[C@]1(C#N)C1CC1 [Example 1, (3R,4S)-3-cyclopropyl-4-methyl-1-(2-(1-methyl-1H-pyrazol-4-yl)-1H-pyrrolo[2,3-b]pyridin-4-yl)-2-oxopyrrolidine-3-carbonitrile] | < 5 | < 100 | < 100 | < 100 | 5 to 20 | 100 to 1000 | < 100 |  |  |  |  |
| C[C@@H]1CN(c2nc(-c3cncc(O)c3)cn3nccc23)C(=O)[C@]1(C#N)C1CC1 [Example 258, (3R,4S)-3-cyclopropyl-1-(6-(5-hydroxypyridin-3-yl)pyrazolo[1,5-a]pyrazin-4-yl)-4-methyl-2-oxopyrrolidine-3-carbonitrile trifluoroacetate] |  |  |  |  | > 100 | > 10000 | 1000 to 5000 | 5 to 20 | < 100 | 100 to 1000 | < 100 |
| C[C@@H]1CN(c2ncnn3cc(-c4cnn(C)c4)cc23)C(=O)[C@]1(C#N)C1CC1 [Example 180, (3R,4S)-3-cyclopropyl-4-methyl-1-(6-(1-methyl-1H-pyrazol-4-yl)pyrrolo[2,1-f][1,2,4]triazin-4-yl)-2-oxopyrrolidine-3-carbonitrile] | > 100 | > 10000 | 5000 to 10000 | > 10000 | > 100 | 5000 to 10000 | 1000 to 5000 |  |  |  |  |
| C[C@@H]1CN(c2ccnn3cc(-c4ccc(OC(F)F)nc4)cc23)C(=O)[C@]1(C#N)C1CC1 [Example 176, (3R,4S)-3-cyclopropyl-1-(6-(6-(difluoromethoxy)pyridin-3-yl)pyrrolo[1,2-b]pyridazin-4-yl)-4-methyl-2-oxopyrrolidine-3-carbonitrile] | 5 to 20 | 100 to 1000 | 1000 to 5000 | 100 to 1000 | > 100 | > 10000 | 5000 to 10000 |  |  |  |  |
| C[C@@H]1CN(c2nc(-c3cnn(C4CC5(COC5)C4)c3)cn3ncc(F)c23)C(=O)[C@]1(C#N)C1CC1 [Example 298, (3R,4S)-1-(6-(1-(2-oxaspiro[3.3]heptan-6-yl)-1H-pyrazol-4-yl)-3-fluoropyrazolo[1,5-a]pyrazin-4-yl)-3-cyclopropyl-4-methyl-2-oxopyrrolidine-3-carbonitrile] |  |  |  |  | 50 to 100 | 100 to 1000 | 100 to 1000 | < 5 | < 100 | < 100 | < 100 |
| C[C@@H]1CN(c2ccnn3cc(-n4cccn4)cc23)C(=O)[C@]1(C#N)C1CC1 [Example 335, (3R,4S)-1-(6-(1H-pyrazol-1-yl)pyrrolo[1,2-b]pyridazin-4-yl)-3-cyclopropyl-4-methyl-2-oxopyrrolidine-3-carbonitrile] |  |  |  |  | > 100 | > 10000 | > 10000 | 20 to 50 | 100 to 1000 | 1000 to 5000 | 100 to 1000 |
| C[C@@H]1CN(c2ccnn3cc(-c4ccc5c(cnn5C)c4)cc23)C(=O)[C@]1(C#N)C1CC1 [Example 55, (3R,4S)-3-cyclopropyl-4-methyl-1-(6-(1-methyl-1H-indazol-5-yl)pyrrolo[1,2-b]pyridazin-4-yl)-2-oxopyrrolidine-3-carbonitrile] | < 5 | < 100 | 100 to 1000 | 100 to 1000 | 5 to 20 | 1000 to 5000 | 100 to 1000 |  |  |  |  |
| C[C@@H]1CN(c2ccnn3cc(-c4cnn(C5CCN(C)C5)c4)cc23)C(=O)[C@]1(C#N)C1CC1 (stereo partly drawn) [Example 332, (3R,4S)-3-cyclopropyl-4-methyl-1-(6-(1-(1-methylpyrrolidin-3-yl)-1H-pyrazol-4-yl)pyrrolo[1,2-b]pyridazin-4-yl)-2-oxopyrrolidine-3-carbonitrile] |  |  |  |  | 50 to 100 | 1000 to 5000 | 1000 to 5000 | < 5 | 100 to 1000 | 100 to 1000 | < 100 |
| C[C@@H]1CN(c2ccnn3cc(-c4cnn(C5CC5)c4)cc23)C(=O)[C@]1(C#N)C1CC1 [Example 161, (3R,4S)-3-cyclopropyl-1-(6-(1-cyclopropyl-1H-pyrazol-4-yl)pyrrolo[1,2-b]pyridazin-4-yl)-4-methyl-2-oxopyrrolidine-3-carbonitrile] | < 5 | 100 to 1000 | 100 to 1000 | 100 to 1000 | 20 to 50 | 1000 to 5000 | 1000 to 5000 |  |  |  |  |
| COc1ccc(-c2cc3c(N4C[C@@H](C)[C@@](C#N)(C5CC5)C4=O)ccnn3c2)cn1 [Example 48, (3R,4S)-3-cyclopropyl-1-(6-(6-methoxypyridin-3-yl)pyrrolo[1,2-b]pyridazin-4-yl)-4-methyl-2-oxopyrrolidine-3-carbonitrile] | 5 to 20 | 100 to 1000 | 100 to 1000 | 100 to 1000 | > 100 | 5000 to 10000 | 1000 to 5000 |  |  |  |  |
| C[C@@H]1CN(c2ccnn3cc(-c4cnn(C5CCCC5)c4)cc23)C(=O)[C@]1(C#N)C1CC1 [Example 170, (3R,4S)-1-(6-(1-cyclopentyl-1H-pyrazol-4-yl)pyrrolo[1,2-b]pyridazin-4-yl)-3-cyclopropyl-4-methyl-2-oxopyrrolidine-3-carbonitrile] | < 5 | < 100 | < 100 | < 100 | > 100 | 5000 to 10000 | 5000 to 10000 |  |  |  |  |
| C[C@@H]1CN(c2nc(-c3cnn([C@H]4C[C@@H](C#N)C4)c3)cn3ncc(F)c23)C(=O)[C@]1(C#N)C1CC1 [Example 292, (3R,4S)-1-(6-(1-((1s,3S)-3-cyanocyclobutyl)-1H-pyrazol-4-yl)-3-fluoropyrazolo[1,5-a]pyrazin-4-yl)-3-cyclopropyl-4-methyl-2-oxopyrrolidine-3-carbonitrile] |  |  |  |  | 20 to 50 | 100 to 1000 | 100 to 1000 | < 5 | < 100 | < 100 | < 100 |
